# ChEMBL document CHEMBL6096739, “The Myxobacterial Genus Archangium: A Prolific and Underexploited Source of Bioactive Secondary Metabolites” (J Med Chem, 2025)
# Numbered stars: 1 amine (or outer) side, 2 acyl side, 3 side chain; on linkers, the order of the positions; unused ones are H or OH. Square brackets hold non-standard residues; d marks the D form. Peptide text beside a SMILES is read from it. X1 = COc1cccc2[nH]c(C)c(C[C@H](N[*:1])C(=O)[*:2])c12; dAla(ψthiazole) = C[C@@H](N[*:1])c1nc(C(=O)[*:2])cs1; Trp(4-OMe) = COc1cccc2[nH]cc(C[C@H](N)C(=O)O)c12; X2 = O=C(c1csc([C@@H](CO)N[*:1])n1)[*:2]; GlyΨ(Thz) = O=C(c1csc(CN[*:1])n1)[*:2]; dAbu = CC[C@@H](N)C(=O)O; Dha = C=C(N)C(=O)O; Sar = CNCC(=O)O
# How the values were obtained:
# [1] = tested on: Metschnikowia pulcherrima; test: Antifungal activity against Metschnikowia pulcherrima DSM 70321; assay type: functional
# [2] = Cytotoxicity against mouse L929 cells assessed reduction in cell viability incubated for 24 hrs by MTT assay; assay type: toxicity, cell-based
# U-937 = test: Cytotoxicity activity against human U-937 cells assessed as reduction in cell viability measured after 24 hrs by CCK-8 assay; assay type: functional, cell-based
# [3] = Toxicity in po dosed rat assessed as lethal dose; assay type: organism-based; parameters: unit not given here; conditions: in vivo
# Clostridium perfringens = test: Antibacterial activity against Clostridium perfringens assessed as bacterial growth inhibition after 24 hrs by microdilution method; assay type: functional
# [4] = tested on: Globisporangium debaryanum; test: Antifungal activity against Pythium debaryanum DSM 62946; assay type: functional
# Botrytis cinerea = test: Antifungal activity against Botrytis cinerea; assay type: functional
# KB = test: Cytotoxicity against human KB cells assessed as reduction in cell viability measured after 72 hrs by MTT assay; assay type: functional, cell-based
# Pseudomonas aeruginosa = test: Antibacterial activity against Pseudomonas aeruginosa ATCC 27853 assessed as bacterial growth inhibition; assay type: functional, organism-based
# HCT-116 = test: Cytotoxicity against human HCT-116 cells assessed as reduction in cell growth measured after 72 hrs by MTT assay; assay type: functional, cell-based; conditions: HCT-116, 72 h
smiles,measurement,setting,value
N#CCc1c[nH]c2ccccc12,MIC,[1],< 1 µg/mL
O=Cc1ccnc2ccccc12,MIC,[1],< 1 µg/mL
O=C(O)c1ccnc2ccccc12,MIC,[1],< 1 µg/mL
O=C(CO)c1c[nH]c2ccccc12,MIC,[1],< 1 µg/mL
CC1=C(C[C@H](O)/C=C\C=C\[C@@H](C)[C@@H](O)/C(C)=C/CC(C)C)OC(C)(O)C1=O (some centres not stated),IC50 at 24 h,[2],1000 nM
O/N=C/Cc1c[nH]c2ccccc12,MIC,[1],< 1 µg/mL
CC[C@H](C)[C@H](NC(=O)[C@H]1CCCCN1C)C(=O)N(COC(C)=O)[C@H](C[C@@H](OC(C)=O)c1nc(C(=O)N[C@@H](Cc2ccc(O)cc2)C[C@H](C)C(=O)O)cs1)C(C)C,IC50,"U-937; Homo sapiens, U-937, 24 h",0.005 nM
C=C(NC(=O)/C(C)=C/C=C\CCCCCC(C)C)C(=O)N/C(=C\OC)C(=O)OC,IC50 at 24 h,[2],3100 nM
C/C=C1/NC(=O)[C@@H]2CSC(=N2)[C@@H]2CCCN2C(=O)[C@@H](CC(C)C)NC(=O)[C@H](C)NC(=O)[C@@H](O)COC(=O)[C@H](C(C)C)N(C)C(=O)[C@H]([C@@H](C)O)NC(=O)[C@@H]2CCCCN2C1=O,LD50,[3],2.3
C=C/C=C(\C)[C@@H](O)CC[C@@H](C)/C=C/[C@@H]1CC[C@@H](C)C(=O)CC(=O)N[C@@H](C)CCC(=O)[C@@H](C)[C@H](O)[C@@H](C)/C=C(\C)C(=O)O1,MIC,Clostridium perfringens,0.78 µg/mL
CCC(=O)OCN(C(=O)[C@@H](NC(=O)[C@H]1CCCCN1C)[C@@H](C)CC)[C@H](C[C@@H](OC(C)=O)c1nc(C(=O)N[C@@H](Cc2ccccc2)C[C@H](C)C(=O)O)cs1)C(C)C,IC50,"U-937; Homo sapiens, U-937, 24 h",0.005 nM
COC(=O)/C=C(/OC)[C@H](C)[C@H](/C=C/c1csc(-c2csc(C3(C)CO3)n2)n1)OC (some centres not stated),MIC,[1],0.04 µg/mL
same,MIC,[4],0.0947 µM
same,MIC,Botrytis cinerea,0.04 µg/mL
CC[C@H](C)[C@H](NC(=O)[C@H]1CCCCN1C)C(=O)N(COC(C)=O)[C@H](C[C@@H](OC(C)=O)c1nc(C(=O)N[C@@H](Cc2ccccc2)C[C@H](C)C(=O)O)cs1)C(C)C,IC50,"U-937; Homo sapiens, U-937, 24 h",0.005 nM
COC(=O)/C=C(/OC)[C@H](C)[C@H](/C=C/c1csc(C2CSC(C(C)C)=N2)n1)OC (some centres not stated),MIC,[1],0.04 µg/mL
same,MIC,[4],0.0947 µM
same,MIC,Botrytis cinerea,0.04 µg/mL
COC(=O)/C=C(/OC)[C@H](C)[C@H](/C=C/c1csc(-c2csc(C(C)=O)n2)n1)OC,MIC,[1],0.04 µg/mL
same,MIC,[4],0.0947 µM
same,MIC,Botrytis cinerea,0.04 µg/mL
O/N=C\c1ccnc2ccccc12,MIC,[1],< 1 µg/mL
C=C(NC(=O)/C(C)=C/C=C\CCCCCCC)C(=O)N/C(=C\OC)C(=O)OC,IC50 at 24 h,[2],3100 nM
CC1=C(/C=C/C=C\C=C\[C@@H](C)[C@@H](O)/C(C)=C/CC(C)C)OC(C)(O)C1=O (some centres not stated),IC50 at 24 h,[2],1000 nM
C/C=C1\NC(=O)[C@H]2CSC(=N2)[C@@H]2C[C@@H](C)N2C(=O)[C@@H](CC(C)C)NC(=O)[C@H](C)NC(=O)[C@@H](O)COC(=O)[C@H](C(C)C)N(C)C(=O)[C@H]([C@@H](C)O)NC(=O)[C@@H]2CCCCN2C1=O,LD50,[3],2.3
C/C=C1\NC(=O)[C@H]2CSC(=N2)[C@@H]2C[C@@H](C)N2C(=O)[C@@H](CC(C)C)NC(=O)[C@H](C)NC(=O)[C@@H](O)COC(=O)[C@H](C(C)C)N(C)C(=O)[C@H]([C@@H](C)O)NC(=O)[C@@H]2CCCN2C1=O,LD50,[3],2.3
CCC(=O)OCN(C(=O)[C@@H](NC(=O)[C@H]1CCCCN1C)[C@@H](C)CC)[C@H](C[C@@H](OC(C)=O)c1nc(C(=O)N[C@@H](Cc2ccc(O)cc2)C[C@H](C)C(=O)O)cs1)C(C)C,IC50,"U-937; Homo sapiens, U-937, 24 h",0.005 nM
COC(=O)/C=C(/OC)[C@H](C)[C@H](/C=C/c1csc(C2CSC(C3(C)CO3)=N2)n1)OC (some centres not stated),MIC,[1],0.04 µg/mL
same,MIC,[4],0.0947 µM
same,MIC,Botrytis cinerea,0.04 µg/mL
CCCC(=O)OCN(C(=O)[C@@H](NC(=O)[C@H]1CCCCN1C)[C@@H](C)CC)[C@H](C[C@@H](OC(C)=O)c1nc(C(=O)N[C@@H](Cc2ccccc2)C[C@H](C)C(=O)O)cs1)C(C)C,IC50,"U-937; Homo sapiens, U-937, 24 h",0.005 nM
CC[C@H](C)[C@H](NC(=O)[C@H]1CCCCN1C)C(=O)N(COC(=O)C=C(C)C)[C@H](C[C@@H](OC(C)=O)c1nc(C(=O)N[C@@H](Cc2ccc(O)cc2)C[C@H](C)C(=O)O)cs1)C(C)C,IC50,"U-937; Homo sapiens, U-937, 24 h",0.005 nM
OCc1ccnc2ccccc12,MIC,[1],< 1 µg/mL
C/C1=C\C=C=CCCC/C=C/[C@H]2O[C@@H](C(=O)O[C@H](C)[C@H]1O)[C@@H](O)[C@@H]2O,MIC,Clostridium perfringens,2.5 µg/mL
C=C(NC(=O)/C(C)=C/C=C\CCCCC(C)C)C(=O)N/C(=C\OC)C(=O)OC,IC50 at 24 h,[2],3100 nM
COCC(C)C1=NC(c2nc(/C=C/[C@H](OC)[C@@H](C)/C(=C\C(=O)OC)OC)cs2)CS1 (some centres not stated),MIC,[1],0.04 µg/mL
same,MIC,[4],0.0947 µM
same,MIC,Botrytis cinerea,0.04 µg/mL
C=C(C)C1=NC(c2nc(/C=C/[C@H](OC)[C@@H](C)/C(=C\C(=O)OC)OC)cs2)CS1 (some centres not stated),MIC,[1],0.04 µg/mL
same,MIC,[4],0.0947 µM
same,MIC,Botrytis cinerea,0.04 µg/mL
C=C(C)c1nc(-c2nc(/C=C/[C@H](OC)[C@@H](C)/C(=C\C(=O)OC)OC)cs2)cs1,MIC,[1],0.04 µg/mL
same,MIC,[4],0.0947 µM
same,MIC,Botrytis cinerea,0.04 µg/mL
C/C=C1/NC(=O)[C@@H]2CSC(=N2)[C@@H]2CCCN2C(=O)[C@@H](CC(C)C)NC(=O)[C@H](C)NC(=O)[C@@H](O)COC(=O)[C@H](C(C)C)N(C)C(=O)[C@H]([C@@H](C)O)NC(=O)[C@@H]2CCCN2C1=O,LD50,[3],2.3
C=C1NC(=O)[C@@H](C)NC(=O)CNC(=O)[C@H](Cc2c[nH]c3cccc(OC)c23)NC(=O)[C@H](Cc2c[nH]c3ccccc23)NC(=O)c2csc(n2)[C@@H](C)NC(=O)CN(C)C1=O (cyclo(W[Trp(4-OMe)]G[dA][Dha][Sar][dAla(ψthiazole)])),IC50,KB,5 nM
C=C1NC(=O)[C@@H](C)NC(=O)CNC(=O)[C@H](Cc2c(C)[nH]c3cccc(OC)c23)NC(=O)[C@H](Cc2c[nH]c3ccccc23)NC(=O)c2csc(n2)[C@@H](C)NC(=O)CN(C)C1=O (cyclo(W[X1]G[dA][Dha][Sar][dAla(ψthiazole)])),IC50,KB,5 nM
C=C1NC(=O)[C@@H](CC)NC(=O)CNC(=O)[C@H](Cc2c(C)[nH]c3cccc(OC)c23)NC(=O)[C@H](Cc2c[nH]c3ccccc23)NC(=O)c2csc(n2)[C@@H](C)NC(=O)CN(C)C1=O (cyclo(W[X1]G[dAbu][Dha][Sar][dAla(ψthiazole)])),IC50,KB,5 nM
C=C1NC(=O)[C@@H](C)NC(=O)CNC(=O)[C@H](Cc2c[nH]c3cccc(OC)c23)NC(=O)[C@H](Cc2c[nH]c3ccccc23)NC(=O)c2csc(n2)CNC(=O)CN(C)C1=O (cyclo([Dha][Sar][GlyΨ(Thz)]W[Trp(4-OMe)]G[dA])),IC50,KB,5 nM
C=C1NC(=O)[C@@H](C)NC(=O)CNC(=O)[C@H](Cc2c[nH]c3cccc(OC)c23)NC(=O)[C@H](Cc2c[nH]c3ccccc23)NC(=O)c2csc(n2)[C@@H](CO)NC(=O)CN(C)C1=O (cyclo([Dha][Sar][X2]W[Trp(4-OMe)]G[dA])),IC50,KB,5 nM
C=C1NC(=O)[C@@H](CC)NC(=O)CNC(=O)[C@H](Cc2c[nH]c3cccc(OC)c23)NC(=O)[C@H](Cc2c[nH]c3ccccc23)NC(=O)c2csc(n2)[C@@H](CO)NC(=O)CN(C)C1=O (cyclo([Dha][Sar][X2]W[Trp(4-OMe)]G[dAbu])),IC50,KB,5 nM
C=C1NC(=O)[C@@H](CC)NC(=O)CNC(=O)[C@H](Cc2c[nH]c3cccc(OC)c23)NC(=O)[C@H](Cc2c[nH]c3ccccc23)NC(=O)c2csc(n2)[C@@H](C)NC(=O)CN(C)C1=O (cyclo([Dha][Sar][dAla(ψthiazole)]W[Trp(4-OMe)]G[dAbu])),IC50,Pseudomonas aeruginosa,0.05 µg/mL
same,IC50,KB,5 nM
CCCC(=O)OCN(C(=O)[C@@H](NC(=O)[C@H]1CCCCN1C)[C@@H](C)CC)[C@H](C[C@@H](OC(C)=O)c1nc(C(=O)N[C@@H](Cc2ccc(O)cc2)C[C@H](C)C(=O)O)cs1)C(C)C [TUBULYSIN B],IC50,"U-937; Homo sapiens, U-937, 24 h",0.005 nM
CC[C@H](C)[C@H](NC(=O)[C@H]1CCCCN1C)C(=O)N(COC(=O)CC(C)C)[C@H](C[C@@H](OC(C)=O)c1nc(C(=O)N[C@@H](Cc2ccccc2)C[C@H](C)C(=O)O)cs1)C(C)C [TUBULYSIN D],IC50,HCT-116,0.003 nM
same,IC50,"U-937; Homo sapiens, U-937, 24 h",0.005 nM
CC[C@H](C)[C@H](NC(=O)[C@H]1CCCCN1C)C(=O)N(COC(=O)CC(C)C)[C@H](C[C@@H](OC(C)=O)c1nc(C(=O)N[C@@H](Cc2ccc(O)cc2)C[C@H](C)C(=O)O)cs1)C(C)C [TUBULYSIN-A],IC50,U-937; u-937,0.005 nM
